Laboratory results published in US11077078B2, “Compositions and methods for the treatment of cancer” (KoDiscovery, LLC, priority 2006, dated 2021).

Tests used:
[1] = test system: human prostate cancer cells; assay: Cell viability/proliferation of human prostate cancer cells vs various anti-cancer agents (FIG. 9); assay type: cell-based
From the text: The anti-cancer compositions described herein can be used to treat any cancer having increased glycolysis; the metabolic phenotype referred to as the “Warburg Effect”, as described above. In another embodiment, the anti-cancer compositions can be used to treat any cancer that can be detected by Positron Emission Tomography (PET), which detects this metabolic phenotype. For example, FIG. 5 illustrates a reaction scheme for PET scanning. Human cancer cell lines that the present anti-cancer composition has shown to be effective against include liver, cervical, ovarian, lung, breast, colon, neuroblastoma, medulloblastoma, prostate, skin, pancreatic, childhood fibrolamellar hepatocellular carcinoma (FHCC), hepatocellular carcinoma (HCC), non small cell lung cancer. For example, FIG. 9 depicts a bar graph showing various cancer drugs effects on human prostate cancer cells. […] As such, the present cancers that can be treated with the present anti-cancer compositions can be selected from the group consisting of liver, cervical, ovarian, lung, breast, colon, neuroblastoma, medulloblastoma, prostate, skin, pancreatic, childhood fibrolamellar hepatocellular carcinoma (FHCC), hepatocellular carcinoma (HCC), non small cell lung cancer. […]

liver cancer cells = assay: Photographs of liver cancer cells treated with 3BP (FIG. 2); assay type: cell-based
From the text: The presently disclosed cellular energy inhibitors, shown as 3-bromopyruvate (3BP) (a lactic acid analog) in FIG. 1, are small chemicals and can mimic the lactic acid chemical structure; depicted as a small diamond in FIG. 1. Therefore, cellular energy inhibitors disguised as lactic acid can “trick” the cancer cells and enter like a Trojan horse (FIG. 1). The inhibitors have little effect on normal cells as these contain very few lactic acid transporters. Because of the present cellular energy inhibitors' highly reactive nature, it can destroy the two energy production factories (FIG. 1; one diamond above the hexokinase (HK), shown as 3BP is destroying one energy production factory, i.e., glycolysis, and another red diamond inside the mitochondrion means that 3BP is destroying also this energy production factory). As a result, the cellular energy (ATP) can be depleted very rapidly by cellular energy inhibitors; 3BP in FIG. 1, attack the two factories at the same time causing the cancer cells to rapidly explode (cell membrane rupturing). […] Here, the healthy cancer cells are round and iridescent (left picture).

[2] = test system: Hepatocellular carcinoma cells; assay: Rat hepatocellular carcinoma study: cancer cell viability vs μM of anti-cancer agents (FIG. 3); details: 23 hour period; 3-bromopyruvate with as little as 20 μM
metastatic lung tumors = assay: Metastatic lung cancer study in rabbits, IP port delivery (FIG. 4); details: dissected lungs

O=C(O)C(=O)CBr [3-Bromopyruvate, 3-bromopyruvate]
stopping cancer cell proliferation vs other known chemo-agents [1]: better than other known chemo-agents in stopping cancer cell proliferation
cell morphology / death after treatment (liver cancer cells): the cell membranes rupture
cell viability [2]: approx. 5%
metastatic lung cancer after treatment (metastatic lung tumors): no metastatic lung cancer
